Results reported in ChEMBL document CHEMBL3885861, “Open TG-GATES”.

Species on record: Rattus norvegicus
Assay: Open TG-GATES - Regimen: Daily Repeat
Format: toxicity, organism-based, Sprague-Dawley
Parameters: regimen Daily Repeat, gender Male, age 6 weeks
Details: in vivo, po, 30 mg/kg, route gavage, dose level Middle; for APTT / Bas / Eos / Fbg / Hb / Ht / Lym / MCH / MCHC / MCV / Mono / Neu / PT / Plat / RBC / Ret / WBC: tissue Blood; for KIDNEY_L / KIDNEY_R / KIDNEY_TOTAL: tissue Kidney; for LIVER: tissue Liver; for A/G / ALP / ALT / AST / BUN / CRE / Ca / Cl / DBIL / GLC / IP / K / LDH / Na / PL / RALB / TBIL / TC / TG / TP / gamma-GTP: tissue Plasma

With OCCOCCN1CCN(C(c2ccccc2)c2ccc(Cl)cc2)CC1 (configuration not stated) [HYDROXYZINE] the TERMINAL_BW (72 h, time 3 day) was 226.2 g, the APTT (72 h, time 3 day) was 15.8 s and the Bas (72 h, time 3 day) was 0%. It also gave an Eos (72 h, time 3 day) of 1%, a Fbg (72 h, time 3 day) of 261.2 mg/dL and a Hb (72 h, time 3 day) of 13.3 g/dL. It also gave a Ht (72 h, time 3 day) of 40%, a Lym (72 h, time 3 day) of 77.6% and an MCH (72 h, time 3 day) of 21.9 pg. For the same compound, the MCHC (72 h, time 3 day) was 33.3%, the MCV (72 h, time 3 day) was 65.7 fL and the Mono (72 h, time 3 day) was 3%. The Neu (72 h, time 3 day) was 17.8%, the PT (72 h, time 3 day) was 15.3 s and the Plat (72 h, time 3 day) was 120.2 x10_4/uL. The RBC (72 h, time 3 day) was 609.6 x10_4/ul, the Ret (72 h, time 3 day) was 6.9% and the WBC (72 h, time 3 day) was 89.6 x10_2/uL. The KIDNEY_L (72 h, time 3 day) was 1 g, the KIDNEY_R (72 h, time 3 day) was 1 g and the KIDNEY_TOTAL (72 h, time 3 day) was 2 g. For the same compound, the LIVER (72 h, time 3 day) was 10.9 g, the A/G (72 h, time 3 day) was 0.9 and the ALP (72 h, time 3 day) was 1463.8 IU/L. The ALT (72 h, time 3 day) was 40.4 IU/L, the AST (72 h, time 3 day) was 66.6 IU/L and the BUN (72 h, time 3 day) was 16.8 mg/dL. The CRE (72 h, time 3 day) was 0.2 mg/dL, the Ca (72 h, time 3 day) was 11.1 mg/dL and the Cl (72 h, time 3 day) was 104.8 meq/L. For the same compound, the DBIL (72 h, time 3 day) was 0.012 mg/dL, the GLC (72 h, time 3 day) was 186 mg/dL and the IP (72 h, time 3 day) was 7.9 mg/dL. The K (72 h, time 3 day) was 4 meq/L, the LDH (72 h, time 3 day) was 72.6 IU/L and the Na (72 h, time 3 day) was 143.6 meq/L. The PL (72 h, time 3 day) was 158.6 mg/dL, the RALB (72 h, time 3 day) was 2.6 g/dL and the TBIL (72 h, time 3 day) was 0.05 mg/dL. It also gave a TC (72 h, time 3 day) of 83 mg/dL, a TG (72 h, time 3 day) of 100.8 mg/dL and a TP (72 h, time 3 day) of 5.6 g/dL. For the same compound, the gamma-GTP (72 h, time 3 day) was 0.8 IU/L, the TERMINAL_BW ([…], time 7 day) was 271.6 g and the TERMINAL_BW ([…], time 14 day) was 331.8 g. For the same compound, the TERMINAL_BW ([…], time 28 day) was 390.1 g, the APTT ([…], time 7 day) was 17 s and the Bas ([…], time 7 day) was 0.2%. For the same compound, the Eos ([…], time 7 day) was 0.6%, the Fbg ([…], time 7 day) was 265.6 mg/dL and the Hb ([…], time 7 day) was 13.6 g/dL. It also gave a Ht ([…], time 7 day) of 40.6%, a Lym ([…], time 7 day) of 81.8% and an MCH ([…], time 7 day) of 21.5 pg. The MCHC ([…], time 7 day) was 33.6%, the MCV ([…], time 7 day) was 63.9 fL and the Mono ([…], time 7 day) was 2.2%. It also gave a Neu ([…], time 7 day) of 14.4%, a PT ([…], time 7 day) of 15.6 s and a Plat ([…], time 7 day) of 107.6 x10_4/uL. It also gave an RBC ([…], time 7 day) of 636 x10_4/ul, a Ret ([…], time 7 day) of 6.5% and a WBC ([…], time 7 day) of 91.6 x10_2/uL. It also gave an APTT ([…], time 14 day) of 16.5 s, a Bas ([…], time 14 day) of 0% and an Eos ([…], time 14 day) of 0.8%. The Fbg ([…], time 14 day) was 262.8 mg/dL, the Hb ([…], time 14 day) was 14.2 g/dL and the Ht ([…], time 14 day) was 41.5%. It also gave a Lym ([…], time 14 day) of 81.4%, an MCH ([…], time 14 day) of 20.7 pg and an MCHC ([…], time 14 day) of 34.2%. For the same compound, the MCV ([…], time 14 day) was 60.7 fL, the Mono ([…], time 14 day) was 3% and the Neu ([…], time 14 day) was 14.2%. For the same compound, the PT ([…], time 14 day) was 15.6 s, the Plat ([…], time 14 day) was 116.6 x10_4/uL and the RBC ([…], time 14 day) was 683.8 x10_4/ul. For the same compound, the Ret ([…], time 14 day) was 4.5%, the WBC ([…], time 14 day) was 103.2 x10_2/uL and the APTT ([…], time 28 day) was 17.6 s. For the same compound, the Bas ([…], time 28 day) was 0.4%, the Eos ([…], time 28 day) was 1.6% and the Fbg ([…], time 28 day) was 274.4 mg/dL. The Hb ([…], time 28 day) was 15.8 g/dL, the Ht ([…], time 28 day) was 45.6% and the Lym ([…], time 28 day) was 80.6%. The MCH ([…], time 28 day) was 19.9 pg, the MCHC ([…], time 28 day) was 34.5% and the MCV ([…], time 28 day) was 57.5 fL. The Mono ([…], time 28 day) was 2%, the Neu ([…], time 28 day) was 14.8% and the PT ([…], time 28 day) was 15.9 s. For the same compound, the Plat ([…], time 28 day) was 91.9 x10_4/uL, the RBC ([…], time 28 day) was 792.8 x10_4/ul and the Ret ([…], time 28 day) was 2.3%. The WBC ([…], time 28 day) was 101.1 x10_2/uL, the KIDNEY_L ([…], time 7 day) was 1.1 g and the KIDNEY_R ([…], time 7 day) was 1.1 g. The KIDNEY_TOTAL ([…], time 7 day) was 2.3 g, the KIDNEY_L ([…], time 14 day) was 1.3 g and the KIDNEY_R ([…], time 14 day) was 1.3 g. The KIDNEY_TOTAL ([…], time 14 day) was 2.7 g, the KIDNEY_L ([…], time 28 day) was 1.5 g and the KIDNEY_R ([…], time 28 day) was 1.4 g. The KIDNEY_TOTAL ([…], time 28 day) was 2.9 g, the LIVER ([…], time 7 day) was 14 g and the LIVER ([…], time 14 day) was 16.6 g. The LIVER ([…], time 28 day) was 16.7 g, the A/G ([…], time 7 day) was 0.8 and the ALP ([…], time 7 day) was 1827.8 IU/L. For the same compound, the ALT ([…], time 7 day) was 37.6 IU/L, the AST ([…], time 7 day) was 64.2 IU/L and the BUN ([…], time 7 day) was 18 mg/dL. For the same compound, the CRE ([…], time 7 day) was 0.2 mg/dL, the Ca ([…], time 7 day) was 11 mg/dL and the Cl ([…], time 7 day) was 104.8 meq/L. For the same compound, the DBIL ([…], time 7 day) was 0.018 mg/dL, the GLC ([…], time 7 day) was 192.8 mg/dL and the IP ([…], time 7 day) was 7.8 mg/dL. For the same compound, the K ([…], time 7 day) was 4.3 meq/L, the LDH ([…], time 7 day) was 58.4 IU/L and the Na ([…], time 7 day) was 142 meq/L. For the same compound, the PL ([…], time 7 day) was 158 mg/dL, the RALB ([…], time 7 day) was 2.7 g/dL and the TBIL ([…], time 7 day) was 0.05 mg/dL. The TC ([…], time 7 day) was 78 mg/dL, the TG ([…], time 7 day) was 120.8 mg/dL and the TP ([…], time 7 day) was 5.9 g/dL. It also gave a gamma-GTP ([…], time 7 day) of 0.6 IU/L, an A/G ([…], time 14 day) of 0.8 and an ALP ([…], time 14 day) of 1412.8 IU/L. The ALT ([…], time 14 day) was 37.6 IU/L, the AST ([…], time 14 day) was 63.6 IU/L and the BUN ([…], time 14 day) was 17.4 mg/dL. It also gave a CRE ([…], time 14 day) of 0.2 mg/dL, a Ca ([…], time 14 day) of 10.7 mg/dL and a Cl ([…], time 14 day) of 103.4 meq/L. It also gave a DBIL ([…], time 14 day) of 0.02 mg/dL, a GLC ([…], time 14 day) of 192.4 mg/dL and an IP ([…], time 14 day) of 7.6 mg/dL. For the same compound, the K ([…], time 14 day) was 4.1 meq/L, the LDH ([…], time 14 day) was 82.6 IU/L and the Na ([…], time 14 day) was 141.6 meq/L. It also gave a PL ([…], time 14 day) of 163 mg/dL, an RALB ([…], time 14 day) of 2.7 g/dL and a TBIL ([…], time 14 day) of 0.05 mg/dL. It also gave a TC ([…], time 14 day) of 81.8 mg/dL, a TG ([…], time 14 day) of 142 mg/dL and a TP ([…], time 14 day) of 6 g/dL. The gamma-GTP ([…], time 14 day) was 0.6 IU/L, the A/G ([…], time 28 day) was 0.8 and the ALP ([…], time 28 day) was 1021.6 IU/L. The ALT ([…], time 28 day) was 37.2 IU/L, the AST ([…], time 28 day) was 59.4 IU/L and the BUN ([…], time 28 day) was 17.8 mg/dL. For the same compound, the CRE ([…], time 28 day) was 0.2 mg/dL, the Ca ([…], time 28 day) was 10.6 mg/dL and the Cl ([…], time 28 day) was 105 meq/L. The DBIL ([…], time 28 day) was 0.014 mg/dL, the GLC ([…], time 28 day) was 191.2 mg/dL and the IP ([…], time 28 day) was 6.7 mg/dL. It also gave a K ([…], time 28 day) of 4 meq/L, an LDH ([…], time 28 day) of 52 IU/L and a Na ([…], time 28 day) of 142.8 meq/L. The PL ([…], time 28 day) was 156.6 mg/dL, the RALB ([…], time 28 day) was 2.8 g/dL and the TBIL ([…], time 28 day) was 0.046 mg/dL. For the same compound, the TC ([…], time 28 day) was 77.4 mg/dL, the TG ([…], time 28 day) was 123 mg/dL and the TP ([…], time 28 day) was 6.2 g/dL. For the same compound, the gamma-GTP ([…], time 28 day) was 0.6 IU/L.
